Experimental data reported in PubChem BioAssay (NCI).
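Method: 48-hour compound exposure of cells in 96-well plates, five concentrations, linear interpolation of endpoints. The concentration for full growth arrest is given as TGI.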

What was measured:
Test in all cases: NCI anticancer screen, dose series, 48 h
[1] = test system: SF-268 CNS
[2] = test system: MDA-MB-435
[3] = test system: ACHN renal
[4] = test system: OVCAR-8 ovarian
[5] = test system: K-562 leukemia
[6] = test system: SF-295 CNS
[7] = test system: BT-549 breast
[8] = test system: A498 renal
[9] = test system: CAKI-1 renal
[10] = test system: UO-31 renal
[11] = test system: MDA-N
[12] = test system: OVCAR-3 ovarian
[13] = test system: SN12C renal
[14] = test system: SK-MEL-28 melanoma
[15] = test system: A549 NSCLC
[16] = test system: NCI-H23 lung
[17] = test system: MCF7 breast
[18] = test system: T-47D breast
[19] = test system: HS 578T breast
[20] = test system: HL-60(TB) leukemia
[21] = test system: DU-145 prostate
[22] = test system: UACC-62 melanoma
[23] = test system: NCI/ADR-RES ovarian
[24] = test system: U251 CNS
[25] = test system: MDA-MB-231 breast
[26] = test system: COLO 205 colon
[27] = test system: SK-OV-3 ovarian
[28] = test system: IGROV1 ovarian
[29] = test system: HCT-116 colon
[30] = test system: CCRF-CEM leukemia
[31] = test system: SK-MEL-5 melanoma
[32] = test system: SK-MEL-2 melanoma
[33] = test system: SF-539 CNS
[34] = test system: MALME-3M melanoma
[35] = test system: HOP-92 NSCLC
[36] = test system: NCI-H226 lung
[37] = test system: 786-0 renal
[38] = test system: SNB-19 CNS
[39] = test system: OVCAR-4 ovarian
[40] = test system: EKVX NSCLC
[41] = test system: NCI-H522 lung
[42] = test system: MOLT-4 leukemia
[43] = test system: HT29 colon
[44] = test system: SR leukemia
[45] = test system: SW-620 colon
[46] = test system: UACC-257 melanoma
[47] = test system: HOP-62 NSCLC
[48] = test system: TK-10 renal
[49] = test system: KM12 colon
[50] = test system: NCI-H460 lung
[51] = test system: OVCAR-5 ovarian
[52] = test system: HCT-15 colon
[53] = test system: RPMI-8226 leukemia
[54] = test system: PC-3 prostate
[55] = test system: LOX IMVI melanoma
[56] = test system: HCC-2998 colon
[57] = test system: M14 melanoma

SMILES: CCc1n[nH]c(=O)n1O
- TGI [1]: > 100 µM
- TGI [2]: > 100 µM
- TGI [3]: > 100 µM
- TGI [4]: > 100 µM
- TGI [5]: > 100 µM
- TGI [6]: > 100 µM
- TGI [7]: > 100 µM
- TGI [8]: > 100 µM
- TGI [9]: > 100 µM
- TGI [10]: > 100 µM
- TGI [11]: > 100 µM
- TGI [12]: > 100 µM
- TGI [13]: > 100 µM
- TGI [14]: > 100 µM
- TGI [15]: > 100 µM
- TGI [16]: > 100 µM
- TGI [17]: > 100 µM
- TGI [18]: > 100 µM
- TGI [19]: > 100 µM
- TGI [20]: > 100 µM
- TGI [21]: > 100 µM
- TGI [22]: > 100 µM
- TGI [23]: > 100 µM
- TGI [24]: > 100 µM
- TGI [25]: > 100 µM
- TGI [26]: > 100 µM
- TGI [27]: > 100 µM
- TGI [28]: > 100 µM
- TGI [29]: > 100 µM
- TGI [30]: > 100 µM
- TGI [31]: > 100 µM
- TGI [32]: > 100 µM
- TGI [33]: > 100 µM
- TGI [34]: > 100 µM
- TGI [35]: > 100 µM
- TGI [36]: > 100 µM
- TGI [37]: > 100 µM
- TGI [38]: > 100 µM
- TGI [39]: > 100 µM
- TGI [40]: > 100 µM
- TGI [41]: > 100 µM
- TGI [42]: > 100 µM
- TGI [43]: > 100 µM
- TGI [44]: > 100 µM
- TGI [45]: > 100 µM
- TGI [46]: > 100 µM
- TGI [47]: > 100 µM
- TGI [48]: > 100 µM
- TGI [49]: > 100 µM

SMILES: S=C(Nc1ccccc1)c1ccc(CN2CCCCC2)s1
- TGI [1]: > 100 µM
- TGI [2]: 35.8 µM
- TGI [50]: 45.4 µM
- TGI [3]: > 100 µM
- TGI [4]: 39.7 µM
- TGI [5]: 43.6 µM
- TGI [6]: 37.5 µM
- TGI [7]: 61.3 µM
- TGI [8]: 37.4 µM
- TGI [9]: 48.8 µM
- TGI [10]: 30.6 µM
- TGI [11]: 33.4 µM
- TGI [12]: > 100 µM
- TGI [14]: 35.3 µM
- TGI [15]: 98.3 µM
- TGI [16]: 42.8 µM
- TGI [17]: 35.7 µM
- TGI [18]: 85.3 µM
- TGI [19]: 60.5 µM
- TGI [51]: 35 µM
- TGI [20]: 34.5 µM
- TGI [21]: > 100 µM
- TGI [22]: 37.2 µM
- TGI [23]: > 100 µM
- TGI [24]: 44.2 µM
- TGI [26]: 36.4 µM
- TGI [27]: 36.9 µM
- TGI [28]: 48.9 µM
- TGI [29]: 34.5 µM
- TGI [30]: 41.3 µM
- TGI [31]: 31.2 µM
- TGI [52]: 36.2 µM
- TGI [53]: 70.4 µM
- TGI [54]: > 100 µM
- TGI [32]: 43.5 µM
- TGI [33]: > 100 µM
- TGI [55]: 32.5 µM
- TGI [56]: 37.9 µM
- TGI [34]: 46.6 µM
- TGI [37]: 34.2 µM
- TGI [38]: 44 µM
- TGI [39]: > 100 µM
- TGI [40]: > 100 µM
- TGI [41]: 35.4 µM
- TGI [42]: 71.4 µM
- TGI [43]: 24.1 µM
- TGI [57]: 32.9 µM
- TGI [44]: 51.5 µM
- TGI [45]: 44.7 µM
- TGI [46]: 46.2 µM
- TGI [47]: 64.8 µM
- TGI [49]: 36.9 µM
